In US20230112845A1, “COMPOSITIONS OF BERBERINE URSODE[…] METHODS THEREOF FOR TREATING FATTY LIVER DISEASE, DIABETES AND HYPERLIPIDEMIA” (SHENZHEN HIGHTIDE BIOPHARMACEUTICAL LTD., priority 2020, published 2023):
“Also recorded” adds a separate entry of the source.

How the values were obtained:
[1] = test system: patients with presumed NASH and type 2 diabetes; test: Phase 2 randomized placebo-controlled trial, 18 weeks: liver fat content (MRI-PDFF), glycemic control, liver enzymes, lipids, body weight, fibrosis markers; type: in vivo, human
From the text: The aim of this study was to determine the effect of two different doses of BUDCA on liver fat content (LFC) in patients with diabetes and presumed NASH when administered for 18 weeks. This phase 2 clinical trial tested the effect of BUDCA in patients with fatty liver disease and diabetes. The group taking the higher dose of this new drug had significant reductions in the amount of fat in their liver as well as improvement in their diabetes.
(§1) A prospective, randomized, placebo-controlled trial of two doses of BUDCA administered orally was conducted in a cohort of 100 subjects with fatty liver disease and diabetes. Treatment was for 18 weeks and endpoints measured included reduction in liver fat content measured by […] proton density fat fraction, improvement in glycemic control, changes in liver-associated enzymes, safety and tolerability.
(§2) Patients with diabetes and presumed NASH were randomized into one of three treatment groups, as follows: 1) BUDCA 500 mg BID 2) 1,000 mg BID and 3) matching placebo. Presumed NASH was defined based largely on magnetic resonance imaging derived proton density fat fraction (MRI-PDFF) of 10% or more. Additional inclusion criteria further enriched the study population for having NASH by virtue of requiring corrected T1 (cT1) of more than 830 milliseconds and elevated serum aspartate aminotransferase (AST)≥20 units per liter (6). Subjects had to be overweight or obese with body mass index of 25 kg/m^2 or more.
Study subjects underwent an initial screening evaluation, including measurement of LFC by MRI-PDFF. Subjects were excluded if they had known liver disease other than fatty liver disease or a history of excessive alcohol consumption. Although liver biopsies were not done as a part of this study, subjects with clear evidence of cirrhosis were excluded, based upon a platelet count of less than 150,000/mm^3, serum albumin levels less than […] or a current or previous history of clinical hepatic decompensation.
Those who were deemed eligible were then randomized into one of the three treatment groups described above and underwent a further baseline evaluation at the time of randomization and initial dosing. Subjects were permitted to continue their current treatment regimen for diabetes provided they had been on a stable dose regimen for at least 90 days.
LFC was measured at baseline and after 18 weeks of therapy. In addition, changes in liver chemistry tests, measures of glycemic control and serum lipid levels were also assessed during and at the end of treatment.
(§3) Descriptive Statistics were used to summarize continuous data, and frequencies and percentages were used to summarize categorical data. The Safety Set consisted of all subjects who received at least one dose of study treatment. The Modified Efficacy Set is a subset of the Safety Set consisting of subjects that had at least one post-dose MRI-PDFF assessment. […] The primary endpoint was an absolute change from Baseline to Week 18 (or ET) in Liver Fat Content. Primary Endpoint summary measures were provided in both the Efficacy and Modified Efficacy sets, with the Efficacy Set prespecified as the primary analysis set. All other endpoints were prespecified to use the Modified Efficacy Set. Comparisons between active treatment groups relative to placebo were tested using Analysis of Covariance (ANCOVA) with treatment group as a fixed effect and baseline value of the parameters of interest as covariates. ANCOVA based LS Means and raw means have been reported. For statistical analysis of laboratory parameters (i.e. P-values), multiple imputation was used to take missing data into account. A two-sided alpha level of 0.05 without adjustment for multiple tests was used to indicate statistical significance. Analyses were performed using SAS System version 9.4.
Effects of treatment with BUDCA on AST to Platelet Ratio Index (APRI) and Fibrosis-4 (FIB-4) were also measured.

[2] = test system: patients with presumed NASH and type 2 diabetes; test: Phase 2 trial: adverse events, safety and tolerability; type: in vivo, human; details: for Subjects with TEAEs Related to Study Drug: Diarrhea, number (%) / Subjects with TEAEs Related to Study Drug: GERD, number (%) / Subjects with TEAEs Related to Study Drug: Nausea, number (%) / Subjects with TEAEs requiring discontinuation of study drug: Abdominal distension, number (%) / Subjects with TEAEs requiring discontinuation of study drug: Acute myocardial infarction, number (%) / Subjects with TEAEs requiring discontinuation of study drug: Diarrhea, number (%) / Subjects with TEAEs requiring discontinuation of study drug: GERD, number (%) / Subjects with TEAEs requiring discontinuation of study drug: Headache and Facial Rash, number (%) / Subjects with TEAEs requiring discontinuation of study drug: Melena, number (%): placebo 0; for Subjects with TEAEs Related to Study Drug: Headache, number (%) / Subjects with TEAEs requiring discontinuation of study drug: Bladder Cancer, number (%): placebo 1 (3%)
Method: as §1, §2, §3

COc1ccc2cc3[n+](cc2c1OC)CCc1cc2c(cc1-3)OCO2.C[C@H](CCC(=O)[O-])[C@H]1CC[C@H]2[C@@H]3[C@@H](O)C[C@@H]4C[C@H](O)CC[C@]4(C)[C@H]3CC[C@]12C [BUDCA, berberine ursodeoxycholate]
absolute LFC decrease, average ([1]; 1,000 mg BID, 18 weeks, placebo 2.0%, p=0.011): 4.8% | Proportion achieving ≥ 30% relative reduction in LFC (subjects/total) ([1]; 1,000 mg BID, 18 weeks, placebo 7/33): 10/30 | Proportion achieving ≥ 5% Absolute Reduction in LFC (subjects/total) ([1]; 1,000 mg BID, 18 weeks, placebo 8/33): 12/30 | relative decrease in LFC ([1]; 1,000 mg BID, 18 weeks, placebo 8.3%, p=0.016): 24.1% | Proportion achieving ≥ 30% relative reduction in LFC (percent) ([1]; 1,000 mg BID, 18 weeks, placebo 21%): (33%) | Proportion achieving ≥ 5% Absolute Reduction in LFC (percent) ([1]; 1,000 mg BID, 18 weeks, placebo 24%): (40%) | decrease in mean HbA1c level ([1]; 1,000 mg BID, 18 weeks, placebo increase of 0.1%): 0.6% | proportion of subjects showing improvements in APRI to thresholds associated with less severe fibrosis, vs placebo ([1]; 1,000 mg, 18 weeks): approximately 2 fold | proportion of subjects showing improvements in FIB-4 to thresholds associated with less severe fibrosis, vs placebo ([1]; 1000 mg, 18 weeks): approximately 4 fold | reduction in APRI vs placebo ([1]; 1,000 mg, after 18 weeks (FIG. 6)): approximately 3 fold | reduction in FIB-4 vs placebo ([1]; 1000 mg, after 18 weeks (FIG. 7)): approximately 3 fold | percentage of subjects achieving ALT reductions vs placebo ([1]; 18 weeks (FIG. 8)): greater percentage | Pro-C3 vs placebo ([1]; 18 weeks (FIG. 9)): No significant differences | enhanced liver fibrosis (ELF) score vs placebo ([1]; 18 weeks (FIG. 9)): No significant differences | change in HOMA-IR ([1]; BUDCA therapy, 18 weeks): No significant changes | change in level of HDL-c ([1]; BUDCA therapy, 18 weeks): no significant change | change in level of blood glucose ([1]; BUDCA therapy, 18 weeks): No significant changes | change in level of insulin ([1]; BUDCA therapy, 18 weeks): No significant changes | average decrease in level of LDL-c ([1]; high dose group (1,000 mg BID), 18 weeks, P=0.072): 16 mg/dL | tolerability ([2]; 500 mg BID and 1,000 mg BID, 18 weeks): generally well tolerated; also recorded: relatively well tolerated | Subjects with TEAEs Related to Study Drug: Diarrhea, number (%) ([2]; 500 mg BID, N = 33): 4 (12%) | Subjects with TEAEs Related to Study Drug: GERD, number (%) ([2]; 500 mg BID, N = 33): 2 (6%) | Subjects with TEAEs Related to Study Drug: Nausea, number (%) ([2]; 500 mg BID, N = 33): 1 (3%) | Subjects with TEAEs requiring discontinuation of study drug: Abdominal distension, number (%) ([2]; 500 mg BID, N = 33): 0 | Subjects with TEAEs requiring discontinuation of study drug: Acute myocardial infarction, number (%) ([2]; 500 mg BID, N = 33): 0 | Subjects with TEAEs requiring discontinuation of study drug: Diarrhea, number (%) ([2]; 500 mg BID, N = 33): 0 | Subjects with TEAEs requiring discontinuation of study drug: GERD, number (%) ([2]; 500 mg BID, N = 33): 1 (3%) | Subjects with TEAEs requiring discontinuation of study drug: Headache and Facial Rash, number (%) ([2]; 500 mg BID, N = 33): 0 | Subjects with TEAEs requiring discontinuation of study drug: Melena, number (%) ([2]; 500 mg BID, N = 33): 0 | Subjects with TEAEs Related to Study Drug: Headache, number (%) ([2]; 500 mg BID, N = 33): 2 (6%) | Subjects with TEAEs requiring discontinuation of study drug: Bladder Cancer, number (%) ([2]; 500 mg BID, N = 33): 0 | Subjects with TEAEs Related to Study Drug: Diarrhea, number (%) ([2]; 1,000 mg BID, N = 34): 9 (26%) | Subjects with TEAEs Related to Study Drug: GERD, number (%) ([2]; 1,000 mg BID, N = 34): 0 | Subjects with TEAEs Related to Study Drug: Nausea, number (%) ([2]; 1,000 mg BID, N = 34): 5 (15%) | Subjects with TEAEs requiring discontinuation of study drug: Abdominal distension, number (%) ([2]; 1,000 mg BID, N = 34): 1 (3%) | Subjects with TEAEs requiring discontinuation of study drug: Acute myocardial infarction, number (%) ([2]; 1,000 mg BID, N = 34): 1 (3%) | Subjects with TEAEs requiring discontinuation of study drug: Diarrhea, number (%) ([2]; 1,000 mg BID, N = 34): 2 (6%) | Subjects with TEAEs requiring discontinuation of study drug: GERD, number (%) ([2]; 1,000 mg BID, N = 34): 1 (3%) | Subjects with TEAEs requiring discontinuation of study drug: Headache and Facial Rash, number (%) ([2]; 1,000 mg BID, N = 34): 2 (6%) | Subjects with TEAEs requiring discontinuation of study drug: Melena, number (%) ([2]; 1,000 mg BID, N = 34): 1 (3%) | Subjects with TEAEs Related to Study Drug: Headache, number (%) ([2]; 1,000 mg BID, N = 34): 1 (3%) | Subjects with TEAEs requiring discontinuation of study drug: Bladder Cancer, number (%) ([2]; 1,000 mg BID, N = 34): 0 | serious adverse event in the high dose group, relation to study drug ([2]; 1,000 mg BID, one serious adverse event): not related to the study drug
